Data as given in US8501813B2, “γ-secretase inhibitor” (Kabushiki Kaisha Yakult Honsha, priority 2007, dated 2013).

Target: γ-secretase (Homo sapiens, UniProt P49768)
Experiment: Substrate specificity: β-Alcα secretion by HEK293 cells transfected with FLAG Alcα C150, anti-FLAG immunoprecipitation/western blot
Type: cell-based
Conditions: 0.2 μmol/L; for activity at 0.2 µM: HEK293, 24 h, FLAG Alcα C150, negative control = 100%, read-out: (ii) β-Alcα secretion rate of HEK293 cells
Experimental: Of families constituting human Alcadein (hereinafter, referred to as Alc) known as a substrate for γ-secretase to colocalize with APP in brain neurons, an artificial Alcα fragment (hereinafter, referred to as Alcα C150) whose first extracellular cleavage site and γ-secretase cleavage site were determined was used to study the substrate specificity of the γ-secretase inhibitor of the present invention. β-Alcα produced from a first cleavage construct of Alcα cannot be quantified by sELISA used in Aβ measurement. Therefore, proteins with an attached FLAG tag at the N termini of first cleavage constructs of Alcα and of C99 were expressed by cells. FLAG-Aβ-like peptides secreted into a medium were collected by immunoprecipitation using anti-FLAG antibodies and detected by western blotting using the antibodies. A specific method thereof is shown below.
HEK293 cells (ATCC) (1×10^7 cells/10 cm dish) cultured in 6 ml of 10% FCS-containing DMEM (Wako Pure Chemical Industries, Ltd.) were transfected with FLAG APP C99 pcDNA3.1 (the nucleotide sequence of its coding region is shown in SEQ ID NO: 2) (J. Biol. Chem., 2003, 278, 49448-49458 (which was prepared from pcDNA3-APPC99)) or with FLAG Alcα C150 pcDNA3.1 (the nucleotide sequence of its coding region is shown in SEQ ID NO: 3) (J. Biol. Chem., 2004, 279, 24343-24354 (which was the same as pcDNA3AlcαΔE)) using Lipofectamine 2000 (Invitrogen Corp.) according to the protocol included in the reagent. Each inhibitor and a positive control (γ-Secretase Inhibitor IX (DAPT)) (Calbiochem Contact Information) were separately added at a concentration of 0.2 or 2 μmol/L. The same dose of DMSO (Wako Pure Chemical Industries, Ltd.) thereas was added as a negative control. 24 hours later, the culture supernatants were collected, and samples were preliminarily purified using beads (100 μL of 50% (v/v) Protein-G Sepharose (GE Healthcare)). Then, 15 μL of 50% (v/v) anti-FLAG antibody M2 beads (Sigma-Aldrich Corp.) were added thereto, and the samples were incubated at 4° C. for 1 hour. The beads were collected by centrifugation and washed three times with a buffer (10 mM Tris-HCl [pH 8.0], 140 mM NaCl, 0.1% n-octyl glucoside, 0.025% sodium azide), and Aβ and β-Alcα in the medium were collected. The proteins were subjected to SDS-PAGE using a 15% Tris-Tricine gel (Anal Biochem., 1987, 166 (2), 368-379) and then transferred to a membrane. The membrane was boiled for 5 minutes in PBS. Then, anti-FLAG M2 antibodies (5 μg/ml) (Sigma-Aldrich Corp.) were added thereto, and the membrane was incubated, followed by detection using a western blotting detection reagent ECL (GE Healthcare). This signal was quantified using Versa-doc system (Bio-Rad Laboratories, Inc.) to calculate protein secretion rates (the protein secretion rate of the negative control is defined as 100%).

SMILES | γ cleavage of the Alcα-C150, in words | activity at 0.2 µM [%]
CSCCC(NC(=O)C(NC(=O)C(CC(C)C)CC(O)C(NC(=O)OC(C)(C)C)C(C)O)C(C)C)C(=O)NCc1ccc(F)cc1 [TLVM-9, [5S-(tert-butoxycarbonylamino)-4R,6R-dihydroxy-2R-(2-methylpropyl)heptanoyl]-L-valyl-L-methionine 4-fluorobenzylamide] | did not inhibit | 158
CSCCC(NC(=O)C(NC(=O)C(CC(C)C)CC(O)C(NC(=O)OC(C)(C)C)C(C)O)C(C)C)C(=O)NCc1ccccc1 [TLVM-5, [5S-(tert-butoxycarbonylamino)-4R,6R-dihydroxy-2R-(2-methylpropyl)heptanoyl]-L-valyl-L-methionine benzylamide] | did not inhibit | 140
CSCCC(NC(=O)C(NC(=O)C(CC(C)C)CC(O)C(NC(=O)OC(C)(C)C)C(C)O)C(C)C)C(=O)NC(C)c1ccccc1 [TLVM-8, [5S-(tert-butoxycarbonylamino)-4R,6R-dihydroxy-2R-(2-methylpropyl)heptanoyl]-L-valyl-L-methionine (S)-α-methylbenzylamide] | did not inhibit | 118
CCCCNC(=O)C(CCSC)NC(=O)C(NC(=O)C(CC(C)C)CC(O)C(NC(=O)OC(C)(C)C)C(C)O)C(C)C [TLVM-7, [5S-(tert-butoxycarbonylamino)-4R,6R-dihydroxy-2R-(2-methylpropyl)heptanoyl]-L-valyl-L-methionine n-butylamide] | did not inhibit | 120
